Read-outs that look alike come from different tables or passages of the source. Some results are limits rather than exact numbers.

For orientation: IC50 means the concentration that inhibits the measured activity by half.

One assay deals with MIA PaCa-2. Briefly: Growth inhibition assay (SRB assay), pancreatic tumor cell line MIA PaCa-2. Type of assay: cell-based, human. The following applies: mean ± SD. How it is done:
(§1) Three human cancer cell lines were used to evaluate the antiproliferative activity of the obtained compounds: melanoma cell line Hs294T, pancreatic tumor cell line MIA PaCa-2, and lung tumor cell line NCI-H1581. The normal mouse fibroblasts cell line (BALB/3T3 clone A31) was selected as reference. All these lines were purchased from the ATCC (American Type Culture Collection, Rockville, MD, USA). NCI-H1581 cells were grown in RPMI 1640 with GlutaMax medium (Gibco, Thermo Fisher Scientific, Leicestershire, UK) with 5% fetal bovine serum (FBS; HyClone, GE Healthcare, Logan, UT, USA). Hs294T and BALB/3T3 cells were grown in Dulbecco’s Modified Eagle Medium (DMEM; Gibco, Thermo Fisher Scientific, Leicestershire, UK) supplemented with 2 mM L-glutamine and 10% FBS (HyClone, GE Healthcare, Logan, UT, USA). MIA PaCa-2 cells were grown in DMEM (Gibco, Thermo Fisher Scientific, Leicestershire, UK) supplemented with 2 mM L-glutamine, 2.5% Horse Serum (Gibco, Thermo Fisher Scientific, Leicestershire, UK), and 10% FBS (HyClone, GE Healthcare, Logan, UT, USA). All culture media were supplemented with antibiotics: 100 U/mL penicillin (Polfa Tarchomin SA, Warsaw, Poland) and 100 µg/mL streptomycin (Sigma-Aldrich Chemie GmbH, Steinheim, Germany); cells were grown at 37 °C in a humid atmosphere with 5% CO2.
(§2) Twenty-four hours prior to the addition of the tested compounds, 2000 cells per well of Balb/3T3, MIA PaCa-2, and Hs294T cell lines and 2500 cells of NCI-H1581 cell line were seeded in 384-well plates (Greiner Bio-One, Kremsmünster, Austria) in an appropriate medium. The studied compounds were added to the cells at 8 different concentrations in a series of dilutions from 100 to 0.00001 µg/mL for 72 h. Cisplatin was applied as a reference compound (Teva Pharmaceuticals, Warsaw, Poland). DMSO (Sigma-Aldrich Chemie GmbH, Steinheim, Germany) was used as solvent control. The DMSO concentrations corresponded to the solvent concentrations in the tested compound solutions. Then, 30 µL per well of ice-cold 50% TCA (trichloroacetic acid, Avantor, Gliwice, Poland) was added to the cells. After one hour of incubation at room temperature (RT) cells were washed five times with water and stained with 0.4% SRB (sulforhodamine B, Sigma-Aldrich Chemie GmbH, Steinheim, Germany). Twenty-five microliters per well of 0.4% solution of SRB in 1% acetic acid (Avantor, Gliwice, Poland) was applied. After 0.5 h of incubation at RT, the unbound dye was washed out with 1% acetic acid. The bound dye in each well was dissolved in 70 µl of 10 mM TRIS (Tris base, Sigma-Aldrich, Chemie GmbH, Steinheim, Germany). A microplate reader (BioTek Synergy H4, Swindon, UK) with Gen5 software was used to read the absorbance at 540 nm. The results are presented as mean IC50 values (concentration of the compound that inhibits cell proliferation by 50%) ± standard deviation. Half-maximal inhibitory concentration (IC50) values were calculated using the Prolab-3 system based on Cheburator 0.4 [22]. Each experiment was performed in triplicate, and three independent repetitions were made for each experiment. Raw data and IC50 values were placed in the supplementary materials.
Background: The SRB assay estimates cell density from bound dye.

The next assay deals with BALB/3T3 clone A31. The assay is described as follows: Growth inhibition assay (SRB assay), normal fibroblasts BALB/3T3 clone A31. Type of assay: cell-based, mouse. The conditions noted are these: mean ± SD. How it is done: as §1, §2
The subject of another assay is NCI-H1581. Briefly: Growth inhibition assay (SRB assay), lung tumor cell line NCI-H1581. In kind it is cell-based, human. The conditions noted are these: for SI (Selectivity Index): SI = IC50 for normal cell line BALB/3T3 / IC50 for NCI-H1581. How it is done:
as §1, §2

A further assay deals with Hs294T. The assay is described as follows: Growth inhibition assay (SRB assay), melanoma cell line Hs294T. In kind it is cell-based, human. The following applies: 72 h, mean ± SD. How it is done: as §1, §2
Where [1] appears, read: Homo sapiens, MIA PaCa-2, 72 h, read-out: IC50 MIA PaCa-2.
Setting [2] is: Homo sapiens, MIA PaCa-2, supplement, 72 h, read-out: IC50 MIA PaCa-2 (raw data).
Setting [3] is: Mus musculus, BALB/3T3 clone A31, 72 h, normal cell line, read-out: IC50 BALB3T3.
The mark [4] stands for this setting: Mus musculus, BALB/3T3 clone A31, 72 h, supplement, read-out: IC50 BALB3T3 (raw data).
Setting [5] is: Homo sapiens, NCI-H1581, 72 h, 72 h, SRB, mean ± SD, read-out: IC50 NCI-H1581.
Where [6] appears, read: Homo sapiens, NCI-H1581, 72 h, supplement, 72 h, SRB, mean ± SD, read-out: IC50 NCI-H1581 (raw data).
Setting [7] is: Homo sapiens, Hs 294T, read-out: IC50 Hs294T.
Setting [8] is: Homo sapiens, Hs 294T, supplement, read-out: IC50 Hs294T (raw data).

Regarding `N.N.[Cl][Pt][Cl]` [Cisplatin, reference compound], the IC50 was 12.6 ± 3.13 µM with MIA PaCa-2 (72 h, read-out: IC50 MIA PaCa-2); 1.83 ± 0.7 µM in the assay on BALB/3T3 clone A31 (72 h, normal cell line, read-out: IC50 BALB3T3); 7.3 µM in the assay with NCI-H1581 (72 h, SRB, mean ± SD, listed as cisplatin, read-out: IC50 NCI-H1581); 7.27 ± 2.83 µM in the assay on NCI-H1581 (72 h, SRB, mean ± SD, read-out: IC50 NCI-H1581); 1.3 ± 0.5 µM in the assay with Hs294T (read-out: IC50 Hs294T). The “IC50 MIA PaCa-2 (raw data)” value in the assay with MIA PaCa-2 (supplement, 72 h) is 3.79 ± 0.94 µg/mL. The “IC50 BALB3T3 (raw data)” value with BALB/3T3 clone A31 (supplement, 72 h) amounted to 0.55 ± 0.21 µg/mL. Further, the “SI (Selectivity Index)” value in the assay on NCI-H1581 was 0.3. For the same compound, the “IC50 NCI-H1581 (raw data)” value in the assay with NCI-H1581 (supplement, 72 h, SRB, mean ± SD) was 2.18 ± 0.85 µg/mL. For the same compound, the “IC50 Hs294T (raw data)” value in the assay with Hs294T (supplement) was found to be 0.39 ± 0.15 µg/mL.

`C[C@@H](c1ccccc1)N1C[C@@H](n2cc(CO)nn2)[C@@H]2CC[C@H]1C2` [Compound 1, (1-((1S,4S,5R)-2-((S)-1-phenylethyl)-2-azabicyclo[3.2.1]octan-4-yl)-1H-1,2,3-triazol-4-yl)methanol]: the half-inhibitory concentration (IC50) with MIA PaCa-2 (setting [1]) is over 100 µM; in the assay on MIA PaCa-2 (Homo sapiens, MIA PaCa-2, supplement, 72 h, read-out: IC50 MIA PaCa-2 (non-rounded data)), over 100 µM; with MIA PaCa-2 (setting [2]), over 100 µM; with BALB/3T3 clone A31 (setting [3]), over 100 µM; with BALB/3T3 clone A31 (Mus musculus, BALB/3T3 clone A31, 72 h, supplement, read-out: IC50 BALB3T3 (non-rounded data)) it was over 100 µM; in the assay with BALB/3T3 clone A31 (setting [4]), over 100 µM. Further, the IC50 in the assay with NCI-H1581 (setting [5]) was over 100 µM; with NCI-H1581 (Homo sapiens, NCI-H1581, 72 h, supplement, 72 h, SRB, mean ± SD, read-out: IC50 NCI-H1581 (non-rounded data)) it was over 100 µM; in the assay on NCI-H1581 (setting [6]) it was over 100 µM; in the assay with Hs294T (setting [7]), over 100 µM; in the assay with Hs294T (Homo sapiens, Hs 294T, supplement, read-out: IC50 Hs294T (non-rounded data)), over 100 µM; with Hs294T (setting [8]) it was over 100 µM.

As for `C[C@@H](c1ccccc1)N1C[C@H](n2cc(CO)nn2)[C@@H]2CC[C@H]1C2` [Compound 2, (1-((1S,4R,5R)-2-((S)-1-phenylethyl)-2-azabicyclo[3.2.1]octan-4-yl)-1H-1,2,3-triazol-4-yl)methanol], the half-inhibitory concentration (IC50) in the assay on MIA PaCa-2 (setting [1]) is over 100 µM; in the assay with MIA PaCa-2 (setting [2]), 71.4 ± 11.8 µg/mL; in the assay with BALB/3T3 clone A31 (setting [3]), over 100 µM; with BALB/3T3 clone A31 (setting [4]), 56.1 ± 8.24 µg/mL; with NCI-H1581 (setting [5]) it was 72.3 ± 34 µM; in the assay on NCI-H1581 (setting [6]) it was 22.6 ± 10.6 µg/mL. In addition, the IC50 is over 100 µM in the assay on Hs294T (setting [7]) and 46.1 ± 2.17 µg/mL with Hs294T (setting [8]).

With `C[C@@H](c1ccccc1)N1C[C@@H](n2cc(CN)nn2)[C@@H]2CC[C@H]1C2` [Compound 3, (1-((1S,4S,5R)-2-((S)-1-phenylethyl)-2-azabicyclo[3.2.1]octan-4-yl)-1H-1,2,3-triazol-4-yl)methanamine], the IC50 in the assay with MIA PaCa-2 (setting [1]) turned out to be 99.9 ± 4.46 µM; in the assay on MIA PaCa-2 (setting [2]), 31.1 ± 1.39 µg/mL; in the assay with BALB/3T3 clone A31 (setting [3]), 94.4 ± 1.89 µM; in the assay with BALB/3T3 clone A31 (setting [4]), 29.4 ± 0.59 µg/mL; in the assay on NCI-H1581 (setting [5]), 11.3 ± 1.25 µM; with NCI-H1581 (setting [6]), 3.51 ± 0.39 µg/mL. In addition, the half-maximal inhibitory concentration (IC50) in the assay with Hs294T (setting [7]) stood at 88.5 ± 9.41 µM; with Hs294T (setting [8]), 27.6 ± 2.93 µg/mL. In the assay with NCI-H1581, the “SI (Selectivity Index)” value was determined as 8.

Take `C=CC(=O)OCc1cn([C@@H]2CN([C@@H](C)c3ccccc3)[C@H]3CC[C@@H]2C3)nn1` [Compound 4, (1-((1S,4S,5R)-2-((S)-1-phenylethyl)-2-azabicyclo[3.2.1]octan-4-yl)-1H-1,2,3-triazol-4-yl)methyl acrylate]: the IC50 stood at 87.7 ± 1.66 µM in the assay on MIA PaCa-2 (setting [1]); 32.1 ± 0.61 µg/mL with MIA PaCa-2 (setting [2]); 1.75 ± 0.76 µM with BALB/3T3 clone A31 (setting [3]); 0.64 ± 0.28 µg/mL in the assay with BALB/3T3 clone A31 (setting [4]); 7.91 ± 1.2 µM in the assay with NCI-H1581 (setting [5]); 2.9 ± 0.44 µg/mL in the assay with NCI-H1581 (setting [6]). For the same compound, the results for the IC50 in the assay on Hs294T (setting [7]) and in the assay on Hs294T (setting [8]) were 9.52 ± 2.51 µM and 3.49 ± 0.92 µg/mL, respectively. For the same compound, the “SI (Selectivity Index)” value in the assay on NCI-H1581 came to 0.2.

The record behind these values is PMC8072719, “Synthesis and Antiproliferative Activity of Triazoles Based on 2-Azabicycloalkanes” (Materials, 2021).
